Test results taken from US20250241965A1, “METHOD TO IMPROVE CELL VIABILITY OF CARDIOMYOCYTES” (UNIVERSITY OF WASHINGTON, priority 2022, published 2025).

What was measured:
[1] = test system: pluripotent stem cells (PSCs) differentiating to cardiomyocytes; experiment: Cell yield during differentiation of pluripotent stem cells to cardiomyocytes in suspension culture; assay type: cell-based; conditions: for cell counts (cells/mL) during differentiation, FIG. 4: versus CBP conditions
Description: FIG. 1A depicts the timeline, base media, media supplements, small molecules for the differentiation of pluripotent stem cells to cardiomyocytes. Addition of CHIR, Wnt agonist, occurs at Day 3 of differentiation, while the Wnt antagonist Wiki, is added either 48 or 44 hours after CHIR addition. The timing from CHIR to WIKI addition is optimized for each cell line and/or reagent change to most efficiently induce cardiomyocye differentiation.
(§1) FIG. 3 (top) illustrates the current best practice (CBP) differentiation methodology including timeline, base media, media supplements and the addition of small molecules. FIG. 3 (bottom) the experimental set up to test three different methodologies designed to improve the cell yield in comparison to CBP (1). To improve the total cell yield, adding an additional media change on the day just prior to the initiation of significant cell loss (2), or the addition of ROCK inhibitor at the points of small molecule addition (CHIR or WIKI, respectively) were tested. To monitor for the fate of cells in the experiment, the cultures were monitored for cell counts (both in single cell suspension and in aggregates), glucose, lactate, and pH using a Blood Gas Analyzer (BGA); apoptosis was analyzed by AnnexinV staining; additionally, mesoderm formation was monitored by flow cytometry for CD56 and PDGFRa to determine if the addition of ROCK inhibitor changed the developmental trajectory of the cells.
FIG. 4 (top) once again illustrates the experimental design as described in […], for reference. FIG. 4 (bottom) indicates the cell counts at multiple time-points from each condition during the differentiation of experiment #19. 19-1 is CBP conditions, 19-2 is media change at day 6 conditions (including the addition of Wiki 5 uM), 19-3 is conditions that received ROCK inhibitor at the time of small molecule addition. At day 6 of differentiation cells numbers in condition 19-3 were elevated to the point of needing to double the media volume and therefore cells were split into 19-3A and 19-3B.
involves multiple steps of PSC expansion and differentiation to the desired lineage. As presented here PSCs are thawed from a suspension PSC bank (PMID: 26318718) and aggregated in suspension culture, with the addition of the ROCK inhibitor Y-27632, shown to permit survival of dissociated PSCs (PMID: 17529971). Following expansion, the cells are induced to differentiate to mesoderm and then cardiomyocytes by modulating Wnt signaling using CHIR99021 to induce mesoderm (PMID: 23257984), followed small molecule Wnt inhibitor, WIKI4 (PMID: 23227175) to specify mesoderm to the cardiomyocyte lineage (FIG. 3).
loss during the addition of CHIR99021 and WIKI4. […] Additionally, at differentiation day 13, the culture with the addition of Y-27632 yielded nearly 4× more cardiomyocytes than cultures without. Subsequently Y-27632 was added to all cultures during the differentiation (FIG. 4).

[2] = test system: pluripotent stem cells (PSCs) differentiating to cardiomyocytes; experiment: Apoptosis by AnnexinV staining (flow cytometry) during cardiomyocyte differentiation; assay type: cell-based
Text: as §1
FIG. 6 illustrates that apoptosis correlates with the cell loss detected in CBP conditions (19-1) and media change (including Wiki) conditions (19-2), in comparison to ROCK inhibitor conditions (19-3). This illustration also includes an additional experimental set which includes addition of ROCK inhibitor at time-points of small molecule addition (20-1), or CBP conditions (20-2). […]

Row | Compound | yield of pre-cardiomyocytes ([1]; Y-27632 added in combination with CHIR99021 and WIKI4, measured at day 6 of differentiation (4.7E5 cells/mL without)) [cells/mL] | cell counts (cells/mL) during differentiation, FIG. 4 ([1]; condition 19-3: ROCK inhibitor at the time of small molecule (CHIR, WIKI) addition) | cardiomyocyte yield relative to cultures without Y-27632 ([1]; differentiation day 13) [×] | yield of pre-cardiomyocytes relative to culture without Y-27632 ([1]; in combination with CHIR99021 and WIKI4, day 6 of differentiation) | AnnexinV staining (apoptosis), FIG. 6 ([2]; condition 19-3: ROCK inhibitor at time-points of small molecule addition) | cell loss by end of culture, FIG. 1B ([1]; additional WIKI4 on day 6 of differentiation, 8 uM CHIR) | cell counts (cells/mL) during differentiation, FIG. 4 ([1]; condition 19-2: media change at day 6 including addition of Wiki 5 uM) | cells/mL in the final culture, FIG. 1B ([1]; media change with no additional WIKI4 on day 6, Day 20 of differentiation) | AnnexinV staining (apoptosis), FIG. 6 ([2]; condition 19-2: media change at day 6 including Wiki)
1 | C[C@@H](N)[C@H]1CC[C@H](C(=O)Nc2ccncc2)CC1 [Y-27632] | 1.1E6 | significantly higher cell numbers | ~4 | greater than double the yield | low |  |  |  | 
2 | COc1ccc(-n2c(SCCCN3C(=O)c4cccc5cccc(c45)C3=O)nnc2-c2ccncc2)cc1 [WIKI4] |  |  |  |  |  | extensive loss of cells | even more rapid loss of cells | roughly 8E5 cells/mL | high
